Test results as given in ChEMBL document CHEMBL1149501, “Selective COX-2 inhibitors. Part 1: synthesis and biological evaluation of phenylazobenzenesulfonamides” (Bioorg Med Chem Lett, 2006).

Key:
[1] = target: Prostaglandin G/H synthase 1 (Homo sapiens, UniProt P23219); test: Inhibition of COX1 assessed as TBX2 production in human whole blood; assay type: functional, tissue-based
[2] = target: T1, Prostaglandin G/H synthase 1 (Ovis aries, UniProt P05979)
T1 sequence (P05979 whole entry): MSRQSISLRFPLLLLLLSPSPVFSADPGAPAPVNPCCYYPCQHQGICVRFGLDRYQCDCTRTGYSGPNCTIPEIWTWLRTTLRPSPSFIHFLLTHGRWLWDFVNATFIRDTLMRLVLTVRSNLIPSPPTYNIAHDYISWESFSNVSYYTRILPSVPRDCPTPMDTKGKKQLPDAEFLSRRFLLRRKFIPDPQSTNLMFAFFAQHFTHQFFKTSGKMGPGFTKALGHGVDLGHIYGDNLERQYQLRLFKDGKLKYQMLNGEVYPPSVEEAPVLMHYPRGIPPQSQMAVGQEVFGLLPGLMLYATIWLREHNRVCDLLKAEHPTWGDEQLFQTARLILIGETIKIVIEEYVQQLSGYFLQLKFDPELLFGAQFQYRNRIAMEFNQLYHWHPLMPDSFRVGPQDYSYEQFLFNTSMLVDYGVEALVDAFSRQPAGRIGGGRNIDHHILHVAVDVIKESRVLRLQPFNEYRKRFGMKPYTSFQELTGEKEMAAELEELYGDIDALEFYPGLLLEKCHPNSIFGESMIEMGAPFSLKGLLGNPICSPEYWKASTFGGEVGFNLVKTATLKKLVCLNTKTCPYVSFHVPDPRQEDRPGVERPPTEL

Prostaglandin G/H synthase 1 (Homo sapiens, UniProt P23219), sequence (P23219 whole entry): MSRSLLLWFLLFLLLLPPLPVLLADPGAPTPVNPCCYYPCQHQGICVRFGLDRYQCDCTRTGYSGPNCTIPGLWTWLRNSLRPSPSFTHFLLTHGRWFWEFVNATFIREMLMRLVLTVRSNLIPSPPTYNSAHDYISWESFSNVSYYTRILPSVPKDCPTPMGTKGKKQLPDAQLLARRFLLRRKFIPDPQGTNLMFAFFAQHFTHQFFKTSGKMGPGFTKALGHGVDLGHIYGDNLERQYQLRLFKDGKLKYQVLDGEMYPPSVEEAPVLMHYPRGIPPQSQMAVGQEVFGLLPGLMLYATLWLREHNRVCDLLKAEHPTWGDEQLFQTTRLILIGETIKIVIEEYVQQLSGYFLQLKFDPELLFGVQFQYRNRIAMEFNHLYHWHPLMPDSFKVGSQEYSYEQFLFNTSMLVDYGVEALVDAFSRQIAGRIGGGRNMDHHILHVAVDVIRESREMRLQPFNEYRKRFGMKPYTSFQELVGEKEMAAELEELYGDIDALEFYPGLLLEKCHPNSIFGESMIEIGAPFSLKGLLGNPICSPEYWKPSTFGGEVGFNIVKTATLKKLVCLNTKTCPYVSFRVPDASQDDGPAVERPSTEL

| SMILES | IC50 [1] [µM] | IC50 [2] [µM] |
| --- | --- | --- |
| NS(=O)(=O)c1ccc(/N=N/c2ccc(O)c(C(=O)O)c2)cc1 [SALAZOSULFAMIDE] | 31.6 | 29.3 |
| COc1ccc(/N=N/c2ccc(S(N)(=O)=O)cc2)cc1OC | 61.7 | > 100 |
| CN(C)c1ccc(/N=N/c2ccc(S(N)(=O)=O)cc2)cc1 | > 100 | – |
| NS(=O)(=O)c1ccc(/N=N/c2ccc(O)cc2)cc1 | > 100 | – |
| NS(=O)(=O)c1ccc(/N=N/c2ccc(O)c(O)c2)cc1 | 60 | – |
| CSc1cc(N)ccc1/N=N/c1ccc(S(N)(=O)=O)cc1 | 23.3 | 34.1 |
| NS(=O)(=O)c1ccc(/N=N/c2ccc(O)c(Cl)c2)cc1 | 33.3 | – |
| Oc1ccc(/C=C/c2cc(O)cc(O)c2)cc1 [RESVERATROL] | – | 0.38 |
| COc1ccc(/N=N/c2ccc(S(N)(=O)=O)cc2)cc1O | 66.4 | – |
| CC(C)c1ccc(NC(=O)Oc2ccc(/N=N/c3ccc(S(N)(=O)=O)cc3)cc2OC(=O)Nc2ccc(C(C)C)cc2)cc1 | 26.3 | – |
| COc1cc(/N=N/c2ccc(S(N)(=O)=O)cc2)ccc1O | > 100 | – |
| COc1ccc(/N=N/c2ccc(S(N)(=O)=O)cc2)cc1 | > 100 | – |
| NS(=O)(=O)c1ccc(/N=N/c2ccc(OC(=O)Nc3ccccc3)c(OC(=O)Nc3ccccc3)c2)cc1 | 35.1 | – |
